The record followed here is PubChem BioAssay AID1322 (NMMLSC, 2008).

Calls of active or inactive are those of the source. No rule for the calls is given here.

The assay deals with Bcl-2-like protein 1 (Homo sapiens) (UniProt Q07817). In words: Bim-Bcl-XL interaction inhibitors, potency, dose response, biochemical, multiplexed, bead flow cytometry, human Bcl-XL (AID 1322). As to inhibition: test concentration not given here. The note with it: Bead-based flow cytometry, Bim peptide-Bcl-XL binding, MCF; for inhibition: stronger effect = higher value.
Chain of Bcl-2-like protein 1 (Homo sapiens) (Q07817 whole entry, looked up): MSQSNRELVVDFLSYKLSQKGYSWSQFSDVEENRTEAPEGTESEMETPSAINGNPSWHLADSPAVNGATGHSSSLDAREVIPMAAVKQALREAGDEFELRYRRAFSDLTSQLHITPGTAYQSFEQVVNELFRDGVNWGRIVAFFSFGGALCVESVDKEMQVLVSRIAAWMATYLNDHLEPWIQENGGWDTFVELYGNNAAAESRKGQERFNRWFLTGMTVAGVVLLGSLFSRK

For `O=[N+]([O-])c1ccc2[nH]nc(-c3ccccc3)c2c1`, the result was inactive.
As for `CC(C)CNC(=O)c1cccc(NC(=O)c2ccc(Cl)c([N+](=O)[O-])c2)c1`, the inhibition result was “inactive”.
Still for that read-out and setting: then `Cc1cc(NC(=O)CSc2nnc(-c3cccnc3)n2Cc2ccccc2)no1`, with “inactive”; and `O=C(CCl)Nc1cccc2ncccc12`, with “inactive”; and `CNC(=O)c1sc(-c2ccccn2)nc1C`, with “inactive”.
With `Cc1cc(NC(=O)CCCC(=O)NCc2ccccc2)no1`, the inhibition entry is “inactive”.
On to `CC(C(=O)Nc1cc([N+](=O)[O-])ccc1Cl)N1CCN(c2ccc(O)cc2)CC1` (configuration not stated), for which the result was inactive.
For `O=C(Cn1cncc1-c1ccc([N+](=O)[O-])cc1)Nc1ccccc1F`, the inhibition result is “inactive”.
With `CCCCc1ccc(NC(=S)NCc2ccc(OC)cc2)cc1`, the outcome was inactive.
On to `CN=c1scc(-c2cccs2)n1/N=C/c1ccc(O)c(O)c1O`, for which the inhibition result was “inactive”.
Take `CCOc1ccc(N2C(=O)C(Cl)=C(Nc3ccccc3O)C2=O)cc1`: the inhibition result is “inactive”.
On to `O=C(Cc1ccc(-c2ccccc2)cc1)NC1CCCC1`, for which the inhibition entry is “inactive”.
Still for that read-out and setting: under `CCOc1ccccc1C(=O)NC1CC2CCCC(C1)N2C1CC1` (configuration not stated) stands “inactive”; under `CCOc1cc(/C=N/NC(=O)c2cccs2)cc([N+](=O)[O-])c1O`, “inactive”.
Consider `Cc1cc(C)c(S(=O)(=O)/N=C2/C=C(SCC(=O)O)C(=O)c3ccccc32)cc1C`, for which the inhibition entry was “inactive”.
On to `O=C1CCc2cc(S(=O)(=O)NCCCC(=O)N3CCN(Cc4ccc5c(c4)OCO5)CC3)ccc2N1`, for which the result was inactive.
`CCOc1cc(C2Nc3cccc4cccc(c34)N2)ccc1O`: the inhibition result was “inactive”.
For the molecule `Cc1ccc(-c2cc(C(=O)Nc3cc(C(=O)O)ccc3C)c3ccccc3n2)cc1`, the result was inactive.
For `Cc1ccc(-c2cc(-c3ccc(Cl)cc3)c(C#N)c(N)n2)o1`, the inhibition result is “inactive”.
For `COc1ccc(C(=O)/C=C/c2cc(OC)c(O)c(OC)c2)c(F)c1`, the inhibition result is “inactive”.
Consider `COc1cc(N=c2ssnc2Cl)cc(OC)c1OC`, for which the inhibition entry is “inactive”.
As to `COc1ccc(N2C(=O)/C(=C/c3cccs3)NC2=S)cc1`, the inhibition result was “inactive”.
On to `COc1ccc(N2CCN(C(=O)c3cc(=O)[nH]c4ccccc34)CC2)cc1`, for which the inhibition entry was “inactive”.
With `Nc1ccc(C2=Nc3cccc4cccc(c34)N2)cc1`, the inhibition entry was “inactive”.
For the molecule `Cc1cc(N2CCN(C)CC2)nc2ccc(NC(=S)N3CCN(c4ccc(F)cc4)CC3)cc12`, the inhibition result is “inactive”.
The same measure, in the same setting: then `COc1ccc(/C=C2\SC(=O)NC2=S)cc1OC`, with “inactive”; and `COC(=O)CCC(=O)Nc1sc(C)c(C)c1C(N)=O`, with “inactive”; and `COc1ccccc1Oc1ccc2c(c1)C(=O)N(c1ccccc1)C2=O`, with “inactive”.
Turning to `O=C(/C=C/c1c(F)cccc1Cl)Nc1ccncc1`, the inhibition entry is “inactive”.
For the molecule `S=C1NC2=C(CCC/C2=C\c2ccccc2)C(c2ccccc2)N1` (configuration not stated), the inhibition result was “inactive”.
For `Cc1c(N2C(=O)c3ccc4c5c(ccc(c35)C2=O)CC4)c(=O)n(-c2ccccc2)n1C`, the inhibition entry was “inactive”.
In the case of `CCCC(=O)OCCNc1cc(Sc2nccn2C)c2nonc2c1[N+](=O)[O-]`, the inhibition result is “inactive”.
With `CCCn1c(C)cc(-c2csc(N)n2)c1C`, the inhibition result is “inactive”.
Turning to `CSc1nnc2ccc(-c3cccs3)nn12`, the inhibition entry is “inactive”.
With `CCOC(=O)C1=C(CP(=O)(c2ccccc2)c2ccccc2)NC(=O)NC1c1ccc(OC)cc1` (configuration not stated), the inhibition result is “inactive”.
As for `CCn1c(C)c(/C=N/Nc2nc3ccccc3s2)c2ccccc21`, the inhibition result is “inactive”.
Turning to `O=C(C1=NN[C@@H]2C(=O)N(c3ccccc3C(F)(F)F)C(=O)[C@H]12)c1ccc2ccccc2n1`, the result was inactive.
`N=C1C(c2nc3ccccc3s2)=C(O)CN1Cc1ccccc1`: the inhibition entry was “inactive”.
Take `C=CS(=O)c1sc(Cl)c(N2CCOCC2)c1[N+](=O)[O-]` (configuration not stated): the outcome was inactive.
Turning to `COc1ccc(C(=S)N2CCCCCC2)cc1`, the inhibition result was “inactive”.
On the same count and under the same terms, under `O=C(COc1ccc(Br)cc1CNC1CCCCC1)NCCc1ccccc1` stands “inactive”.
For the molecule `COc1cc(/C=N/Nc2nc3c(c(=O)n(C)c(=O)n3C)n2Cc2ccccc2)ccc1OC(=O)c1ccco1`, the outcome was inactive.
On to `CCC(=O)OCCNc1cc(Sc2nc3ccccc3s2)c2nonc2c1[N+](=O)[O-]`, for which the inhibition entry is “inactive”.
As for `Cc1ccc(-c2cc(-c3ccc4c(c3)OCO4)c(C#N)c(N)n2)o1`, the inhibition result is “inactive”.
For `CC1CCN(C2(O)C(=O)Nc3ccc(Br)cc32)CC1` (configuration not stated), the result was inactive.
As to `O=C(OCC(=O)c1ccc[nH]1)c1ccccc1`, the inhibition entry is “inactive”.
The same measure, in the same setting: under `CNc1ccccc(C(=O)/C=C/c2ccccc2OC)c1=O` stands “inactive”; under `COc1ccccc1Cn1nnc2c(=O)[nH]c(C3CCN(C(=O)c4ccc(C)cc4)CC3)nc21`, “inactive”.
With `O=C1NC(=O)C(=Cc2ccc(-c3cc(Cl)ccc3[N+](=O)[O-])o2)C(=O)N1`, the outcome was inactive.
`Cc1ccc(OCC(=O)NCc2ccccn2)c(Br)c1`: the inhibition result is “inactive”.
On the same count and under the same terms, under `CNC(=O)c1c(N)sc2c1CCCCC2` stands “inactive”.
For the molecule `CCOC(=O)c1nc(Nc2ccc(N3CCC(C)CC3)cc2)c2ccccc2n1`, the outcome was inactive.
For `Cc1nc2scc(-c3ccccc3)c2c(=O)n1N=C1C=CC(=O)C=C1`, the inhibition entry is “inactive”.
As for `Cc1cc(C)n(CC(=O)N/N=C/c2cccc([N+](=O)[O-])c2)n1`, the outcome was inactive.
As for `CC(C)Cc1cc(-c2ccco2)c(C#N)c(N)n1`, the inhibition result was “inactive”.
As for `O=C(CNC(=O)c1ccc(S(=O)(=O)N2CCCC2)cc1)N/N=C/c1ccc(Cl)cc1Cl`, the outcome was inactive.
As to `Cc1ccc2c(C)c(C(=O)Nc3nnc(C)s3)oc2c1`, the inhibition entry was “inactive”.
`COc1cc(C2Nc3cccc4cccc(c34)N2)ccc1OC(C)=O`: the inhibition result is “inactive”.
For `Fc1ccccc1/C=C1\CCCC2=C1NC(=S)NC2c1ccccc1F` (configuration not stated), the inhibition result is “inactive”.
As for `CCN(CC)CCN(C(=O)c1ccc(N2C(=O)CCC2=O)cc1)c1nc2cc3c(cc2s1)OCCO3`, the outcome was inactive.
As to `O=C(Nc1cccc(-c2ccc3nncn3n2)c1)c1ccco1`, the inhibition entry is “inactive”.
Turning to `COc1ccc(CC(=O)Nc2ccccc2Oc2ccccc2)cc1`, the outcome was inactive.
In the case of `CCOc1ccc2nc(SCC(=O)N3c4ccccc4Sc4ccccc43)c(C#N)cc2c1`, the inhibition entry was “inactive”.
As to `CCn1c(SCC(=O)Nc2ccc(C)cc2)nnc1-c1ccc(O)cc1`, the inhibition entry was “inactive”.
With `COc1c(C)cc(Br)cc1C(=O)Nc1ccc(S(N)(=O)=O)cc1`, the result was inactive.
`CCOC(=O)C1(Cc2cccc(OC)c2)CCN(Cc2cccc(OC)c2OC)CC1`: the outcome was inactive.
Regarding `Nc1c(C(=O)NCc2ccco2)sc2nc3c(cc12)C(=O)CCC3`, the inhibition entry was “inactive”.
